Measured values taken from patent US7718768B2, “Biologically active peptide [sequence]” (CMS Peptides Patent Holding Company Limited, priority 2001, dated 2010).
Marks after values point to notes of the source that are not given here. No end group written: not given here.

Key:
Type in all cases: in vivo, BALB/c mice
anti-SRBC antibody = assay: Sheep Red Blood Cell (SRBC) hemolysis test, anti-SRBC antibody formation; settings: SRBC on day 12, IFN-γ and IL-2 groups 3×10^5 IU/kg/day, X ± SD
In short: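 Mice got test substances plus 0.2 ml SRBC i.p. on day 12; serum taken day 16, diluted 500-fold, mixed with 2% SRBC and guinea pig complement, 10 min at 37 °C. Lysis read as OD540nm after Drabkin's, indexed against a reference SRBC OD540nm.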

NK cell = NK cell cytotoxicity activity test (YAC-1 target cells, MTT) on spleen cells of treated mice; settings: IFN-γ and IL-2 groups 3×10^5 IU/kg/day, X ± SD
Protocol: The above substances were all dissolved in 0.5 ml saline and injected intraperitoneal (i.p.) for 15 continuous days, once per day.
Ten mice per group. The day after the last test substance administration, the mice were sacrificed by cervical dislocation. The spleen was isolated aseptically and manually dispersed in cold D-Hank's solution using an injection needle. The dispersed cell suspension was further sieved through a 100 gauge 150 μm diameter stainless steel sieve. After centrifugation at 200 g for 10 minutes, the supernatant was discarded. The cell pellet was re-suspended in 10 volume of Tris-NH4Cl buffer and then kept standing still for 10 minutes at room temperature. The suspended cells were collected by centrifugation at 150 g for 10 minutes. The cells were washed 2-4 times with cold D-Hank's solution by re-suspending and collecting by centrifugation with condition as described above. The washed cells were then diluted to the desired cell densities by RPMI-1640 culture medium, containing 10% fetal bovine serum.
Mice spleen cells were prepared to 4×10^6/ml as described in section 1.1 above. Target cells YAC-1 were brought to log phase and adjusted to 1×10^5/ml. Using a 96 wells cell culture plate, 100 μl mouse spleen cells and 100 μl culture medium were added to the control well containing only the spleen cells; 100 μl target cells and 100 μl culture medium were added to the control well containing only target cells; 100 μl mouse spleen cells and 100 μl target cells were added to the NK activity assay well. Three parallel sets of the above were prepared per mouse.
Samples were centrifuged at 150 g for 10 minutes to collect the cells. The supernatant was discarded and 50 μl/well MTT of 1 mg/ml was added. The reaction mixture was then shaken for 2 minutes, and incubated at 37° C., 5% CO2 for 4 hours. The supernatant was discarded after centrifugation at 150 g for 10 minutes. 120 μl 40 mM HCl-2-propanol was added and shaken for 3 minutes. An ELISA reader was used to obtain OD570nm of each well referenced at 630 nm.

[1] = immunity organ weight test (thymus gland index, spleen index); settings: X ± SD
In short: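 Substances in saline given i.p. once daily for 15 days; on day 16 liver, spleen and thymus excised, blotted and weighed. Thymus and spleen indices = organ weight/body weight ×100%; phagocytosis index α from body weight and liver-plus-spleen weight.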

[2] = peptide 0.5 μg/kg/day i.p. 15 days
[3] = peptide 5 μg/kg/day i.p. 15 days
[4] = peptide 50 μg/kg/day i.p. 15 days
[5] = peptide 500 μg/kg/day i.p. 15 days
[6] = peptide 5 μg/kg/day i.p. 15 days, IFN-γ and IL-2 groups 3×10^5 IU/kg/day
[7] = peptide 50 μg/kg/day i.p. 15 days, IFN-γ and IL-2 groups 3×10^5 IU/kg/day
[8] = peptide 500 μg/kg/day i.p. 15 days, IFN-γ and IL-2 groups 3×10^5 IU/kg/day
[9] = peptide 0.5 μg/kg/day i.p. 15 days, IFN-γ and IL-2 groups 3×10^5 IU/kg/day

Row | Molecule | anti-SRBC antibody formation (sample serum index) (anti-SRBC antibody; [2]) | anti-SRBC antibody formation (sample serum index) (anti-SRBC antibody; [3]) | anti-SRBC antibody formation (sample serum index) (anti-SRBC antibody; [4]) | anti-SRBC antibody formation (sample serum index) (anti-SRBC antibody; [5]) | NK cell cytotoxic activity (NK cell activity index) (NK cell; [4]) [%] | weight of spleen (spleen index) [1, 5] [%] | NK cell cytotoxic activity (NK cell activity index) (NK cell; [5]) | weight of thymus gland (thymus gland index) [1, 6] | weight of thymus gland (thymus gland index) [1, 7] | weight of thymus gland (thymus gland index) [1, 8] | NK cell cytotoxic activity (NK cell activity index) (NK cell; [2]) [%] | NK cell cytotoxic activity (NK cell activity index) (NK cell; [3]) | weight of thymus gland (thymus gland index) [1, 9] | weight of spleen (spleen index) [1, 7] [%] | weight of spleen (spleen index) [1, 3] [%] | weight of spleen (spleen index) [1, 9] [%]
1 | FNFVPP [CMS003] | 2 ± 1* Unit | 91 ± 24*^@ Unit | 52 ± 11* Unit | 96 ± 18*^@ Unit | 85 ± 6 | 0.40 ± 0.04 | – | – | – | – | – | – | – | – | – | –
2 | IGMESAGIHETTY [CMS016] | – | 93 ± 32*^@ Unit | – | 143 ± 38*^@^ Unit | – | – | 91 ± 7*^@^ % | 0.22 ± 0.06 % | 0.20 ± 0.03*^@^ % | 0.18 ± 0.05 % | – | – | – | – | – | –
3 | KAVGHLDDLPGAL [CMS008] | – | 97 ± 26*^@ Unit | – | 82 ± 15*^@ Unit | – | – | – | – | 0.20 ± 0.04*^@^ % | 0.21 ± 0.03*^@^ % | 46 ± 12 | 92 ± 4*^@^ % | 0.22 ± 0.07*^ % | 0.39 ± 0.08 | – | –
4 | LRVAPEEHPTL [CMS009] | 2 ± 1* Unit | 79 ± 18*^@ Unit | 13 ± 5* Unit | 113 ± 22*^@^ Unit | – | 0.41 ± 0.03 | – | – | – | – | – | 92 ± 6*^@^ % | – | – | – | –
5 | PSIVGRPRHQGVM [CMS015] | 13 ± 4* Unit | 94 ± 37*^@ Unit | 54 ± 9*^@ Unit | 136 ± 22*^@^ Unit | 78 ± 8 | 0.36 ± 0.07 | – | 0.20 ± 0.08 % | – | – | – | – | – | – | 0.38 ± 0.15 | –
6 | PTTKTYFPHF [CMS001] | – | 110 ± 24*^@ Unit | – | – | 85 ± 10 | 0.43 ± 0.07 | – | 0.22 ± 0.05 % | – | – | – | – | – | – | – | 0.40 ± 0.05
7 | Phe Glu Glu Glu (FEEE; listed as Sus scrofa) [CMS032] | – | 157 ± 37*^@^ Unit | 131 ± 24*^@^ Unit | – | – | – | 87 ± 5 % | 0.29 ± 0.04*^@^ % | 0.27 ± 0.03*^@^ % | 0.25 ± 0.03*^@^ % | – | – | 0.21 ± 0.06 % | – | – | –
8 | Phe Val Asn Asp (FVND; listed as Sus scrofa) [CMS035] | – | 176 ± 39*^@^ Unit | 97 ± 10*^@^ Unit | 88 ± 16*^@ Unit | 72 ± 9 | – | 90 ± 10 % | 0.21 ± 0.04 % | – | – | 76 ± 10 | – | – | – | – | –
9 | Pro Glu Asn Phe (PENF; listed as Sus scrofa) [CMS034] | 20 ± 2* Unit | 172 ± 37*^@^ Unit | 136 ± 11*^@^ Unit | – | – | – | – | 0.27 ± 0.06*^@^ % | 0.19 ± 0.04*^ % | 0.20 ± 0.05*^ % | – | 90 ± 5 % | – | – | – | –
10 | RVAPEEHPTL [CMS011] | 5 ± 3* Unit | 115 ± 27*^@^ Unit | 67 ± 9*^@ Unit | 188 ± 16*^@^ Unit | – | 0.41 ± 0.04 | – | 0.22 ± 0.04 % | – | – | 79 ± 3 | 76 ± 10 % | – | – | – | –
11 | Tyr Ser Leu (YSL; listed as Sus scrofa) [CMS024] | 98 ± 6*^@^ Unit | 171 ± 39*^@^ Unit | – | 75 ± 29*^@ Unit | – | 0.34 ± 0.05 | 89 ± 8 % | 0.23 ± 0.06*^ % | 0.27 ± 0.02*^@^ % | – | – | 78 ± 3 % | – | – | – | –
12 | VAPEEHPTLLTEAPLNPK [CMS010] | 10 ± 3* Unit | – | – | 112 ± 30*^@^ Unit | – | – | 91 ± 4*^@^ % | 0.27 ± 0.05*^@^ % | – | 0.19 ± 0.04 % | – | 82 ± 9 % | 0.21 ± 0.03 % | 0.38 ± 0.05 | – | –
13 | VGMGQKDSY [CMS019] | 12 ± 3* Unit | 118 ± 20*^@^ Unit | – | 91 ± 26*^@ Unit | – | 0.63 ± 0.08 | – | 0.24 ± 0.02*^@^ % | 0.20 ± 0.03*^@^ % | 0.19 ± 0.02 % | – | – | – | – | – | –
14 | IFN-γ: recombinant mouse interferon-γ, Beijing Biotech Inc.; positive control immunostimulant (protein, UniProt P01580 23-155, looked up) Interferon gamma: HGTVIESLESLNNYFNSSGIDVEEKSLFLDIWRNWQKDGDMKILQSQIISFYLRLFEVLKDNQAISNNISVIESHLITTFFSNSKAKKDAFMSIAKFEVNNPQVQRQAFNELIRVVHQLLPESSLRKRKRSRC | 37 ± 10 Unit | 37 ± 10 Unit | 37 ± 10 Unit | 37 ± 10 Unit | 73 ± 10 | – | 77 ± 8 % | 0.15 ± 0.04% | 0.15 ± 0.04% | 0.15 ± 0.04% | 72 ± 9 | 80 ± 8 % | 0.15 ± 0.04% | 0.50 ± 0.04 | – | 0.50 ± 0.04
